The source of these data is ChEMBL document CHEMBL1158439, “Non-isotopic dual parameter competition assay suitable for high-throughput screening of histone deacetylases” (Bioorg Med Chem Lett, 2009).

Assay [1] addresses T1, Histone deacetylase-like amidohydrolase (Alcaligenes sp. (strain DSM 11172) (Bordetella sp. (strain FB188)), UniProt Q70I53).
T1 sequence (Q70I53 whole entry): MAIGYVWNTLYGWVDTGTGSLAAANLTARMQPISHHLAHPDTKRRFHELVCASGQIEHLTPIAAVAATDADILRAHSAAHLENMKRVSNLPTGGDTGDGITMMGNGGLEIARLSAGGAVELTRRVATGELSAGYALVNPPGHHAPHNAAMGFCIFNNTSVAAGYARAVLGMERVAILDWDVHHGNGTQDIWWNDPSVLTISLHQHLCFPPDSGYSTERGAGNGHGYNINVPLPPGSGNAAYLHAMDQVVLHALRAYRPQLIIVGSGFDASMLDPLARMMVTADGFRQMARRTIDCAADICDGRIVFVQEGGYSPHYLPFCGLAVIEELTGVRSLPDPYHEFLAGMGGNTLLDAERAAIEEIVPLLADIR
As to the kind of experiment: Displacement of Atto700-HA from Bordetella / Alcaligenes strain FB188 HDAH by fluorescence anisotropy. Details: species or system Alcaligenaceae bacterium FB188. On the technique in general: In fluorescence polarisation assays a small probe gives low polarisation when free and higher when bound to something large.

Assay [2] has the same target. Briefly: Inhibition of Bordetella / Alcaligenes strain FB188 HDAH by fluorogenic enzyme assay. Further details: species or system Alcaligenaceae bacterium FB188.
Assay [3] can be described thus: Displacement of Atto700-HA from Bordetella / Alcaligenes strain FB188 […] by fluorescence anisotropy. Details: species or system Alcaligenaceae bacterium FB188.
The nature of assay [4]: Inhibition of HDAC from RT extract.
Assay [5] deals with T1, Histone deacetylase-like amidohydrolase (Alcaligenes sp. (strain DSM 11172) (Bordetella sp. (strain FB188)), UniProt Q70I53). Briefly: Binding affinity to Bordetella / Alcaligenes strain FB188 HDAC by FRET assay. Further details: species or system Alcaligenaceae bacterium FB188.
Assay [6] can be described thus: Inhibition of Bordetella / Alcaligenes strain FB188 HDAC6 by fluorogenic enzyme assay.
Assay [7] in a line: Inhibition of Bordetella / Alcaligenes strain FB188 HDAC6 by fluorescence polarization assay. Details: species or system Alcaligenaceae bacterium FB188.
Assay [8] deals with T1, Histone deacetylase-like amidohydrolase (Alcaligenes sp. (strain DSM 11172) (Bordetella sp. (strain FB188)), UniProt Q70I53). Briefly: Inhibition of Bordetella / Alcaligenes strain FB188 HDAH by fluorimetric assay. Details: species or system Alcaligenaceae bacterium FB188.

Molecules are shown by their SMILES.

For orientation: Ki means a measure of affinity in units of concentration, obtained from inhibition or displacement. Lower therefore signals higher affinity. As a reminder, the IC50 is the point on the concentration scale where inhibition reaches its midpoint. High values mean lower potency, low ones higher potency.

As to `CCC1=C(OC)C(=O)C(CCCCCCCCCCC(C)=O)=C(C)C1=O`, the Ki in assay [1] came out at 1100 nM. The IC50 in assay [2] is 600 nM; in assay [3], above 50000 nM; in assay [4] it was above 50000 nM.

In the case of `CCCCCC1OC1CC#CCCCCCCCC(=O)O` (configuration not stated), the figures for the Ki in assay [1] and in assay [5] were 20000 nM and 4300 nM, respectively. Moreover, the figures for the IC50 in assay [2] and in assay [3] were 9200 nM and above 20000 nM, respectively.

With `O=C(CCCCCc1nc2cc3ccccc3cc2[nH]1)C(F)(F)F`, in assay [1], the Ki amounted to 1400 nM. Also, the IC50 in assay [2] turned out to be 600 nM; in assay [3] it was 70 nM; in assay [4] it was 600 nM.

Compound `Nc1ccccc1NC(=O)c1ccc(CNC(=O)OCc2cccnc2)cc1` [ENTINOSTAT] came in with a Ki in assay [1] above 100000 nM. Moreover, the concentration for half-maximal inhibition (IC50) in assay [2] was 118000 nM; in assay [6] it was above 10000 nM; in assay [4], 8800 nM.

On to `CCC(=O)CCCCC[C@@H]1NC(=O)[C@H]2CCCCN2C(=O)[C@H]([C@@H](C)CC)NC(=O)[C@H](Cc2cn(OC)c3ccccc23)NC1=O` [APICIDIN], for which the IC50 in assay [7] was 670 nM. The affinity in assay [1], expressed as Ki, was 9200 nM.

On to `CCCCCCCCCCCC[C@@H](C)O[C@@H]1O[C@H](CO)[C@@H](O)[C@H](O)[C@H]1O[C@@H]1O[C@H](COC(C)=O)[C@@H](O)[C@H](O)[C@H]1O`, for which the values for the Ki in assay [1] and in assay [5] were 10000 nM and 2000 nM, respectively. For the same compound, the values for the IC50 in assay [2], in assay [3] and in assay [4] were 6200 nM, above 50000 nM and above 50000 nM, respectively.

On to `CC(/C=C/C(=O)NO)=C\[C@@H](C)C(=O)c1ccc(N(C)C)cc1` [TRICHOSTATIN], for which the IC50 in assay [7] was 17 nM; in assay [8], 1200 nM; in assay [4], 1 nM. In assay [1], this compound registered a Ki of 700 nM.
